Measurements as given in ChEMBL document CHEMBL3507680, “University of Dundee, Gates Library screen for HepG2 cell viability”.

assay: Human HepG2 cell viability assay in 384 well format; type: toxicity, cell-based; design: dose 125 nL, time 70.5 hour; concentration not given beside the values; conditions: HepG2 cells, read-out: Inhibition

Structure (SMILES)	cytotoxicity at 70.5 h [%]
CC(Oc1ccc(C(=O)NCCNS(C)(=O)=O)cn1)c1ccccc1 (stereo not given)	-8.66
Cc1nc(CN2CCN(c3ccc(SC(C)C)nn3)CC2)cs1	11.1
CCC(C)(C)NC(=O)c1ccc(NC(=O)NCc2cc(C)on2)cc1	-6.36
NS(=O)(=O)CCNC(=O)c1ccc(OCc2ccccc2)nc1	20.5
O=C(CCc1ccc(C(F)(F)F)cc1)N1CCCS1(=O)=O	-4.91
O=C(CCc1ccc(OC(F)(F)F)cc1)N1CCCS1(=O)=O	-3.82
Cc1cc(S(=O)(=O)N2CCOCC2C#N)ccc1F (stereo not given)	13.3
CC(Cc1ccc(C(F)(F)F)cc1)C(=O)N1CCCS1(=O)=O (stereo not given)	-9.41
CN(C)CCn1ccc(NC(=O)NC(C)(C)c2nccs2)n1	-12.6
CCc1nc(CC)n(CC(=O)N(C)Cc2ccc(F)cc2)n1	-4.65
Cc1ccc(S(=O)(=O)N2CCOCC2C#N)cc1Br (stereo not given)	-6.92
CC(NC(=O)NCCCO)c1ccc(-c2ccncc2)cc1 (stereo not given)	-9.46
OCCN1CCN(Cc2cn(-c3ccccc3)nn2)CC1	-11.9
CC(C)CN(c1cn[nH]c1)S(=O)(=O)c1cccc(C#N)c1	-6.94
C=C(C)CN(c1cn[nH]c1)S(=O)(=O)c1cccc(C#N)c1	-5.38
CC(NCCc1nccn1Cc1ccccc1)c1cccs1 (stereo not given)	13.3
COc1cccc(CNC2CCCOc3cc(C)ccc32)n1 (stereo not given)	-9.25
O=C1CCCN1CCCN1CCCCC1Cn1cncn1 (stereo not given)	-5.51
Cc1nc(CN2CCCN(CC(=O)N(C)C(C)(C)C#N)CC2)no1	-10.4
O=C1OCCC1N1CCN(c2cnccn2)CC1 (stereo not given)	-8.4
CCCc1nnc(SCC(=O)Nc2cc(C(C)(C)C)nn2C)[nH]1	-13.2
Cc1cc(NC(=O)N2CCN(C)CC2C)n(C(C)(C)C)n1 (stereo not given)	-9.8
N#Cc1cc(Cl)ccc1N1CCOC(C(N)=O)C1 (stereo not given)	-0.791
CC(C)(C)NC(=O)N1CCN2C(=O)OCC2C1 (stereo not given)	-3.52

Structure (SMILES)	cytotoxicity at 70.5 h [%]
NC(=O)N1CCCN(C2CCc3ccc(F)cc32)CC1 (stereo not given)	-1.61
CN1CCC(O)(CNCc2ccc(F)c(C(F)(F)F)c2)CC1	22.4
Fc1ccc(NCc2ccncc2)c(OC(F)F)c1	-5.76
Cn1nc(C(C)(C)C)cc1NC(=O)CSc1nnc[nH]1	-4.97
O=C(CN1CCOCC1)N1CCN(C2CCc3ccc(F)cc32)CC1 (stereo not given)	-4.68
CCCC(=O)NCc1cccc(C(=O)OC)c1	-9.06
CS(=O)(=O)NCCNC(=O)NC1(c2ccc(F)cc2)CCCC1	-9.82
Cn1nc(CC(C)(C)C)cc1NC(=O)c1ccc2[nH]nnc2c1	19
COc1cc2nc(NCc3scnc3C)nc(N)c2cc1OC	8.57
Cc1nonc1NC(=O)C1SCCc2sccc21 (stereo not given)	32.5
CCc1cnc(N2CCN(CC(=O)Nc3c(C)n[nH]c3C)CC2)s1	-3.55
c1cc(-c2noc(-c3cc(C4CC4)on3)n2)cc(N2CCCCC2)n1	-7.87
CN(C)CCN1CCC(NC2CSCCc3ccccc32)CC1 (stereo not given)	-7.29
OCCOc1ccc(NCc2cc(F)cc3cccnc23)cn1	-9.9
Cc1nc(N2CCC3(CCOC3)C2)c2cc[nH]c2n1 (stereo not given)	27.9
CCNC(=O)NCc1ccnc(N(C)C)n1	-5.28
CCN(CC(F)(F)F)C(=O)C1CCCN(Cc2nc(C)c(C)o2)C1 (stereo not given)	-1.99
CCCNC(=O)CN1CCN(c2nc(CC)ns2)CC1	-9.67
CNC(=O)CN1CCC(NC2CSCCc3ccccc32)CC1 (stereo not given)	0.136
OCCOc1ccc(NCc2cccc3[nH]ccc23)cn1	-3.37
CCc1ccc(C2COCCN2C(=O)Nc2ccc(C(N)=O)c(Cl)c2)o1 (stereo not given)	-2.09
O=C(COC1CCCC1)N1CCCN(c2ncccn2)CC1	-2.52
Cc1ccc(C)c(S(=O)(=O)NC(=O)COc2cccc(C#N)c2)c1	-2.88
Cc1ccc(S(=O)(=O)NC(=O)COc2cccc(C#N)c2)c(C)c1	14.4

Structure (SMILES)	cytotoxicity at 70.5 h [%]
CN(CCC(=O)NC1CC1)Cc1ccc(Cl)s1	-7.03
O=c1[nH]c(CN2CCN(CC(F)(F)F)CC2)nc2ccccc12	-13.3
O=C(COC1CCCCC1)N1CCN(C(=O)Cc2ccccn2)CC1	-6.92
COc1cc(C2(C(=O)NCCn3ccnc3)CCCC2)ccc1C	-6.48
CCc1noc(C(C)N2CCN(Cc3cnc(C)cn3)CC2)n1 (stereo not given)	16.3
O=C(NCc1ccccc1CN1CCCCCC1)Nc1nncs1	-5.79
Cc1ncsc1CNc1ccn(Cc2ccccc2)n1	6.63
CCOCCNC(=O)Cc1cccc(I)c1	0.854
CN(C)CCNC(=O)Cc1cccc(I)c1	18.8
COc1cc(OC)cc(C2CCN(CC(=O)NCC(F)(F)F)C2)c1 (stereo not given)	-3.94
NC(=O)CCCNC(=O)Cc1cccc(I)c1	-1.69
COCc1cccc(C(=O)N2CCN(C3=NCC(C)(C)S3)CC2)c1	-3.27
CC(=O)CC(C)(C)NC(=O)CCN(C)Cc1ccc(Cl)s1	-9.29
OCC1CCCCN1Cc1nc(Cc2ccccc2)no1 (stereo not given)	-3.62
COCc1nccc(C2CCCN(Cc3ccccc3C#N)C2)n1 (stereo not given)	-6.99
CN(Cc1cccc(Cl)c1)Cc1nnsc1Cl	-5.2
Cc1cc(CN2CCN(C(C)c3nc(C(C)C)no3)CC2)no1 (stereo not given)	-7.52
CNC(=O)CN1CCC(c2cc(OC)cc(OC)c2)C1 (stereo not given)	-7.18
Cc1cccc(OC(C)C(=O)NCC2(N(C)C)CCCC2)c1 (stereo not given)	-8.19
O=C(CN1CCN(c2ccccc2F)CC1)Nc1ccc(Cl)cn1	11.6
CN(Cc1ccc2c(c1)OCO2)C(=O)c1ccc(=O)n(C)c1	-1.05
CS(=O)(=O)NCC1CCCN(c2ccc(C(F)(F)F)cn2)C1 (stereo not given)	-7.49
CN(Cc1ccc(Br)o1)C(=O)Nc1cccnc1	-5.06
N#Cc1ccccc1N1CCCN(CC(=O)Nc2ccccc2Cl)CC1	-6.48

Structure (SMILES)	cytotoxicity at 70.5 h [%]
Cn1ccnc1COc1ccc(NC(=O)CCC2CCCO2)cc1 (stereo not given)	-5.92
COc1c(CNCc2cccc(CN3CCOCC3)c2)c(C)nn1C	-10.7
O=C(CN1CSCC1=O)NCC1CCN(c2ccccc2)C1 (stereo not given)	-8.38
COc1cc(NC(=O)NC2CC2)ccc1N1CCOC1=O	-8.49
O=C(NCCNC(=O)C1Cc2cc(F)ccc2O1)C1CCCCC1 (stereo not given)	-9.82
COc1c(C(=O)NCC(C)Sc2ccccc2)c(C)nn1C (stereo not given)	-5.69
Cc1csc(C2CCCCN2C(=O)Cn2cncn2)n1 (stereo not given)	20.9
N#Cc1nccnc1N1CCC(c2nc(C(F)(F)F)c[nH]2)CC1	-9.24
N#Cc1cccnc1N1CCC(c2nc(C(F)(F)F)c[nH]2)CC1	-15.7
N#Cc1ccc(N2CCC(c3nc(C(F)(F)F)c[nH]3)CC2)nc1	-11.5
FC(F)(F)c1c[nH]c(C2CCN(c3ncccn3)CC2)n1	-15.4
Cn1cc(Br)cc(NC(=O)CC(C)(C)C)c1=O	-13.2
CCC(=O)Nc1cc(Br)cn(C)c1=O	23.5
CC(C)(C)OC(=O)N1CCC[C@H](NCc2cc[nH]c2)C1	-11
CCc1nc(C(=O)N2CCN(CCc3ccc(OC)cc3)CC2)c[nH]1	-12.3
Brc1csc(CNCc2nnc3n2CCC3)c1	-12.4
CC(C)SCc1cccc(NC2CCN(C)C2=O)c1 (stereo not given)	-15.1
O=C(Nc1cn[nH]c1)N(CCO)C1CCc2ccccc21 (stereo not given)	-13.9
CC(C)(C)OC(=O)N1CCC[C@H](NCC2=CCCOC2)C1	-9.87
CCc1nnc2n1CC(CNCc1nc(C)c(C)o1)CC2 (stereo not given)	-2.88
Cc1ccc(O)c(CNCC(C)c2nc3ccccc3o2)n1 (stereo not given)	-4.08
Cc1ccc(S(=O)(=O)N(CC(N)=O)CC(C)C)cc1C	-5.56
Brc1ccc(-c2nnc(CN(Cc3cccs3)CC3CCCO3)o2)s1 (stereo not given)	-14.5
CN(Cc1ccc(N(C)C)cc1)C(=O)CSc1ccc(Br)cc1	-9.49

Structure (SMILES)	cytotoxicity at 70.5 h [%]
Cc1nnc(NCCC(=O)NCc2ccccc2)c(C#N)c1C	-9.42
Cc1nnc(NCCC(=O)N(C)Cc2ccccc2)c(C#N)c1C	3.39
CCOc1ncccc1NC(=O)Nc1c(C)nn(C(C)C)c1C	-4.11
Cc1cc(C)c(CNC(=O)NCC2Cc3ccccc3O2)c(=O)[nH]1 (stereo not given)	-6.51
O=C(c1cc(F)cc2[nH]cnc12)N1CCCC1Cn1cccn1 (stereo not given)	-8.91
Cc1nnc(C(NS(=O)(=O)c2cc(C#N)ccc2C)C(C)C)[nH]1 (stereo not given)	-5.93
CCn1nc2c(cc1=O)CN(c1ncnc3ccsc13)CC2	-7.93
CC(C)n1nc2c(cc1=O)CN(c1ncnc3ccsc13)CC2	13.9
CC(C)n1nc2c(cc1=O)CN(c1ncnc3ccccc13)CC2	-1.82
Cc1nnc(C(NS(=O)(=O)c2cc(F)c(C)cc2F)C(C)C)[nH]1 (stereo not given)	-5.12
Cn1cnnc1-c1ccnc(NCc2ccc3c(c2)OCCO3)c1	-3.05
OC1CCN(c2ccnc3c(F)cc(Br)cc23)CC1	16.9
Cc1cc(S(=O)(=O)NC(=O)CCc2cncc(F)c2)c(C)s1	-1.54
Cc1cn2c(n1)C(CNCC1=Cc3ccccc3OC1)CCC2 (stereo not given)	10.6
CN(Cc1ccccc1)C(=O)CCNc1ncccc1C#N	-4.83
FC(F)COc1ccccc1NCc1nnsc1Cl	-10.5
O=C(c1c[nH]c2ncccc12)N1CCC(COc2ccccc2)CC1	10.4
CN(C)C(CNC(=O)c1nc(N2CCCC2)ncc1Cl)c1ccco1 (stereo not given)	-17.5
COc1cc2c(cc1OC)S(=O)(=O)N(Cc1ccc(C)cc1)C2=O	-14.5
Cc1ccc(C(=O)O)cc1S(=O)(=O)N(CC(C)O)c1ccccc1 (stereo not given)	-16.2
Cc1n[nH]c(C)c1CNCC(O)c1cccc(Cl)c1 (stereo not given)	-13.1
CC(C)c1nn(C)c(N(C)C)c1CNCc1cscn1	-5.21
Cc1nn(C)c(N(C)C)c1CNCc1nnc2n1CCCCC2	-6.41
Brc1ccc(CNCc2nnc3n2CCC3)s1	14.8
